Results as given in ChEMBL document CHEMBL3988442, “University of Dundee, Small-Polar-MMV Screening Library” (2021).
Where “and” joins values, the source holds several entries; their conditions need not be identical. Identical values can stand only once.

Tests used:
Format in all cases: functional
[1] = molecular target: Lysine--tRNA ligase (Plasmodium falciparum (isolate 3D7), UniProt Q8IDJ8); assay: Pf-KRS-1 (Lysyl-RNA Synthetase-1, KRS-1, cytosolic KRS) from Plasmodium falciparum. Inhibitor assay, 384 well plate, luminescence read.
[2] = molecular target: Protein translocase subunit SecA (Escherichia coli (strain K12), UniProt P10408); assay: Assay to Identify E. coli SecA ATPase Inhibitors
[3] = molecular target: T1, Ubiquitin-activating enzyme e1, putative (Leishmania donovani (strain BPK282A1), UniProt E9BSI1); assay: Leishmania donovani Ubiquitin Activating Enzyme (LdE1)
T1 sequence (E9BSI1 whole entry): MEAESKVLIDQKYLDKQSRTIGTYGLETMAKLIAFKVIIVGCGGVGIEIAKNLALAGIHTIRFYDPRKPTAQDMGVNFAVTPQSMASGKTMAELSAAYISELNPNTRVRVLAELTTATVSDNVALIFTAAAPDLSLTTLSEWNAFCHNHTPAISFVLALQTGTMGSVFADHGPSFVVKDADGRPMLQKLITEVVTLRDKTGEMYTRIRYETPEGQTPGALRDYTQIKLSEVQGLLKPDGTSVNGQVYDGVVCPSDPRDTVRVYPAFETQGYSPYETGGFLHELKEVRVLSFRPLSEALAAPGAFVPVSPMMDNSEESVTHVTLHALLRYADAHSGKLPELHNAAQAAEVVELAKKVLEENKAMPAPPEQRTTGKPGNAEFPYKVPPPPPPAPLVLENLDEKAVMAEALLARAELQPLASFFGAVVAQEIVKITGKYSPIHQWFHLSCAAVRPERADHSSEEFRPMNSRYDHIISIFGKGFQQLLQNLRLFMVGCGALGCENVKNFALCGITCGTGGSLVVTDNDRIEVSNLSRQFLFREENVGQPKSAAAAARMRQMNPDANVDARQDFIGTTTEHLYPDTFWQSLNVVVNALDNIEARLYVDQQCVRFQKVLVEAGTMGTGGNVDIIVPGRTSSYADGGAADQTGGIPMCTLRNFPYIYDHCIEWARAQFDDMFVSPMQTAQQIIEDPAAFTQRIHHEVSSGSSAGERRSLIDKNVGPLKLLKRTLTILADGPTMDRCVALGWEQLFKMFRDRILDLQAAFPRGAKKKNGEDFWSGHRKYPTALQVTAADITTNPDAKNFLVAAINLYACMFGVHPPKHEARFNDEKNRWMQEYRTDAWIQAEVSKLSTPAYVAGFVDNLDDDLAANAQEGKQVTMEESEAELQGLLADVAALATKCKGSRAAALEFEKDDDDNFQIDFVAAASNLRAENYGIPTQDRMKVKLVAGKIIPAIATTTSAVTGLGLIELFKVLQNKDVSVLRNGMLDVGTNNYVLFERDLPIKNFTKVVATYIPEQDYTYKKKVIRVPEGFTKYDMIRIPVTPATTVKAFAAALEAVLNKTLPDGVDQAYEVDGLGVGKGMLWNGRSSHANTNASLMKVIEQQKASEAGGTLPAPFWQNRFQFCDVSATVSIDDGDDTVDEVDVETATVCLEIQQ

[4] = molecular target: T2, Histidine--tRNA ligase (Trypanosoma cruzi (strain CL Brener), UniProt Q4DA54); assay: Trypanosoma cruzi histidyl tRNA synthetase (Tc-HisRS)
T2 sequence (Q4DA54 whole entry): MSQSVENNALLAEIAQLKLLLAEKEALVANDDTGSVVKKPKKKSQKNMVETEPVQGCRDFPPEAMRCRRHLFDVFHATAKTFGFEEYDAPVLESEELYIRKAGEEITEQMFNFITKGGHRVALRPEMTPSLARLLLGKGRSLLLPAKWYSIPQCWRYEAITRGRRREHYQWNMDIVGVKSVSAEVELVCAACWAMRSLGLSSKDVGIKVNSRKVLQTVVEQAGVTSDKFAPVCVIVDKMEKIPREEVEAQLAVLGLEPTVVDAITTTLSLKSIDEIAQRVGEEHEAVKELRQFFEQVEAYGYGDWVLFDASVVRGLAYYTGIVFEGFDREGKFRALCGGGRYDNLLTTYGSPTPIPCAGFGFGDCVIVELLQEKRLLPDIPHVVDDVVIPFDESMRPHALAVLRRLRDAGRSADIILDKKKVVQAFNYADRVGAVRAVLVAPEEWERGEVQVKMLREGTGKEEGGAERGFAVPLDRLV

[5] = molecular target: T3, Histidine--tRNA ligase (Leishmania infantum, UniProt A4I591); assay: Leishmania infantum Histidine tRNA synthetase (LdHisRS)
T3 sequence (A4I591 whole entry): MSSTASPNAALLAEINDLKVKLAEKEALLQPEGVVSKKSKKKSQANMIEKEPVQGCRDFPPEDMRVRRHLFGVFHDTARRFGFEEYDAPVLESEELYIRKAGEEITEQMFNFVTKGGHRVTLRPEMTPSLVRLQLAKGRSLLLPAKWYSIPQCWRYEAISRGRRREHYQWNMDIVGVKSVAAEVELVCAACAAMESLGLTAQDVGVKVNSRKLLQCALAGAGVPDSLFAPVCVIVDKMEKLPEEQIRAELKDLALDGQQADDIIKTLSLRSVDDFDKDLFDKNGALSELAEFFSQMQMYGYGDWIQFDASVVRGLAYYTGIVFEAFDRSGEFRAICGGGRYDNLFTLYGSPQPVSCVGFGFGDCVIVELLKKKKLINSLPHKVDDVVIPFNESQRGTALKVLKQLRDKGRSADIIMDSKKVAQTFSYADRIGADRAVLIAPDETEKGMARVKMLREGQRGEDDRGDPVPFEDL

[6] = molecular target: ClpP1P2 (Mycobacterium tuberculosis (strain ATCC 25618 / H37Rv), UniProt P9WPC3+P9WPC5); assay: in vitro assay to detect presence of AMC directly proportional to the activity of ClpP1P2. GHDDI collaboration.
[7] = molecular target: T4, Shiga toxin 2 (Escherichia coli O157:H7, UniProt P09385+P09386); assay: E. coli 0.157:H7 Shiga Toxin SOP - stx2 screening assay
T4 sequence (P09385 whole entry): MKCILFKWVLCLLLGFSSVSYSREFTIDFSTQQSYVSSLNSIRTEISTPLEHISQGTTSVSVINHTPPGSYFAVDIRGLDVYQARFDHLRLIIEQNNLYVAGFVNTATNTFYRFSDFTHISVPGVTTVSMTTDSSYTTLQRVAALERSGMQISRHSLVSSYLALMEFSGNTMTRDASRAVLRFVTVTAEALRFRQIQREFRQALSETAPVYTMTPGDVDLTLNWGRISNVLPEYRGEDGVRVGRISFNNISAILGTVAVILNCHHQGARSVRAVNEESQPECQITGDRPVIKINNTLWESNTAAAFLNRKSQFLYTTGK
T4 sequence (P09386 whole entry): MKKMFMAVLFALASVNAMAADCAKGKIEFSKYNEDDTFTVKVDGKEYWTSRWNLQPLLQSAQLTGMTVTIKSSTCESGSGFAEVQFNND

Chain of ClpP1P2 (P9WPC5 whole entry): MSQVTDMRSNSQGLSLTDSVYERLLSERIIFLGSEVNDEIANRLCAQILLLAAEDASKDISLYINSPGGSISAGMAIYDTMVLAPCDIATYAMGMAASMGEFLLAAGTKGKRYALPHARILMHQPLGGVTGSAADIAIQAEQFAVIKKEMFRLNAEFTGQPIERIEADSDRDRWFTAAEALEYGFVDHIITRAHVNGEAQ
Chain of ClpP1P2 (P9WPC3 whole entry): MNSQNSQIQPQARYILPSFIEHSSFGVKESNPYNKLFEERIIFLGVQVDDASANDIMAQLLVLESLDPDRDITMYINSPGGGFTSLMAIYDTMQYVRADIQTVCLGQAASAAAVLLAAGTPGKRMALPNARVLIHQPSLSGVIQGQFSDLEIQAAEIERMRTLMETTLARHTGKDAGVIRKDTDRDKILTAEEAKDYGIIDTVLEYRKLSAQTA
Chain of Protein translocase subunit SecA (P10408 whole entry): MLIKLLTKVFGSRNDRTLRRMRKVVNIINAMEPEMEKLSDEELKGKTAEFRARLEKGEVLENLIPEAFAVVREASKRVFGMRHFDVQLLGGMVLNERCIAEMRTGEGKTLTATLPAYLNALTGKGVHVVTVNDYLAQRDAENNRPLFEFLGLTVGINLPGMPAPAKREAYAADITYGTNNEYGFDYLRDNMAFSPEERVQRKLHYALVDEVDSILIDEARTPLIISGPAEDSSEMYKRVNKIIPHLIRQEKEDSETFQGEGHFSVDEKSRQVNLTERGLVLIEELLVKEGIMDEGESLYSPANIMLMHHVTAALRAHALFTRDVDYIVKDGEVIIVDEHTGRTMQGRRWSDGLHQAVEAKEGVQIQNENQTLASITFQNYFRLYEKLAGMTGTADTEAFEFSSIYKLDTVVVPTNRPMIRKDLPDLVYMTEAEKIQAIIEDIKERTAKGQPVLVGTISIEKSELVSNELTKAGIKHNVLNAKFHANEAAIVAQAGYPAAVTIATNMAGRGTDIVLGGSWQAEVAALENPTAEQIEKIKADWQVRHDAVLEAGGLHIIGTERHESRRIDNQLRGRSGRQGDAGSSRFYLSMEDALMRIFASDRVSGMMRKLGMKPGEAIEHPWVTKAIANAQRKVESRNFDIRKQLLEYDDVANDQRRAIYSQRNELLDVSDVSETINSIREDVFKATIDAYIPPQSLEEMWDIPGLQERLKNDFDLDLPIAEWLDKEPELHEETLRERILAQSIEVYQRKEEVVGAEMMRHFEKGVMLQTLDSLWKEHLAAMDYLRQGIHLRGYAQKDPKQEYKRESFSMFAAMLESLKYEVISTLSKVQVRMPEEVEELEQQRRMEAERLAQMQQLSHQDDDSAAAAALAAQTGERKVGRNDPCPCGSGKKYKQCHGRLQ
Chain of Lysine--tRNA ligase (Q8IDJ8 whole entry): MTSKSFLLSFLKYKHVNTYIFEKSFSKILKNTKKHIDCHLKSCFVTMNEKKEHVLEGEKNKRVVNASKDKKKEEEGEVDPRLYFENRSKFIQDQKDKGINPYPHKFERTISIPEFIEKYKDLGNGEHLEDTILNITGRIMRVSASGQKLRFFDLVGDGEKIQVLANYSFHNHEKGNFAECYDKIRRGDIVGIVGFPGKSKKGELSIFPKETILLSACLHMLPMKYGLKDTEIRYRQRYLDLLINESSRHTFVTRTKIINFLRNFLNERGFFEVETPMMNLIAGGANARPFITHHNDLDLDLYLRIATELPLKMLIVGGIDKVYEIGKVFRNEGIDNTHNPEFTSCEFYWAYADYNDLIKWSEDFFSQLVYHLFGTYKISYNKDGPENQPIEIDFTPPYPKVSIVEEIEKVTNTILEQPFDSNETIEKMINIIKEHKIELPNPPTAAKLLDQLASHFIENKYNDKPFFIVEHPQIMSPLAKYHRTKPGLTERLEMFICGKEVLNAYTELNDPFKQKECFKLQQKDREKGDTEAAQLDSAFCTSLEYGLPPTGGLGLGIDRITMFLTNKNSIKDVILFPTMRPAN

| SMILES | IC50 [1] [µM] | IC50 [2] | IC50 [3] | IC50 [4] | IC50 [5] | IC50 [6] [µM] | IC50 [7] |
| --- | --- | --- | --- | --- | --- | --- | --- |
| COc1ccccc1C1CC(=O)Nc2nc(N3CCCCC3)sc21 (stereo unspecified) | > 50.1 | 22.1 µM and 29.4 µM | 54.8 µM and 48.5 µM | 2.4 µM and 1.34 µM | 0.231 µM | > 100 |  |
| CNc1nc2c(s1)C(c1cc(Cl)ccc1F)CC(=O)N2 (stereo unspecified) | > 50.1 | > 100 µM |  | 19.4 µM and 20.6 µM |  | > 100 |  |
| O=C1CC(c2ccccc2C(F)(F)F)c2sc(N3CCOCC3)nc2N1 (stereo unspecified) | > 50.1 | > 100 µM | > 100 µM | 10.8 µM and 16.3 µM |  | > 100 |  |
| COc1ccc(C2CC(=O)Nc3nc(N4CCOCC4)sc32)c(OC)c1 (stereo unspecified) | > 50.1 | > 100 µM and 33.8 µM | > 100 µM | 2.24 µM and 2.8 µM | 0.231 µM and 0.259 µM and 0.28 µM | > 100 |  |
| Nc1nc2c(s1)C(c1c(F)cccc1Cl)CC(=O)N2 (stereo unspecified) | > 50.1 | > 100 µM |  | 9.65 µM and 7.68 µM | 3.22 µM and 4.42 µM |  |  |
| CNc1nc2c(s1)C(c1ccccc1Cl)CC(=O)N2 (stereo unspecified) | > 50.1 | > 100 µM |  | 6.72 µM and 7.27 µM | 2.19 µM and 2.57 µM and 2.79 µM and 2.64 µM |  |  |
| COc1cccc(C2CC(=O)Nc3nc(N4CCCCC4)sc32)c1OC (stereo unspecified) | > 50.1 | 22.7 µM and 22.6 µM | 81.5 µM and 75 µM | 2.42 µM and 4.13 µM | 0.423 µM and 0.346 µM | > 100 |  |
| O=C1CC(c2ccccc2Br)c2sc(N3CCOCC3)nc2N1 (stereo unspecified) | > 50.1 | > 100 µM | > 100 µM and 92.2 µM | 6.96 µM and 6.21 µM | 1.13 µM and 1.44 µM |  |  |
| CC(C)Oc1ccccc1C1CC(=O)Nc2nc(N3CCOCC3)sc21 (stereo unspecified) | > 50.1 | 41.6 µM and 34.6 µM | 86.4 µM and 89.7 µM | 3.93 µM and 5.46 µM |  | > 100 |  |
| COc1ccc(OC)c(C2CC(=O)Nc3nc(N4CCOCC4)sc32)c1 (stereo unspecified) | > 50.1 | > 100 µM and 34.1 µM | > 100 µM | 3.5 µM and 4.23 µM | 0.373 µM and 0.317 µM | > 100 |  |
| COc1ccc(C2CC(=O)Nc3nc(N4CCOCC4)sc32)cc1 (stereo unspecified) | > 50.1 | 37.3 µM and > 100 µM | > 100 µM | 10.8 µM and 8.7 µM | 1.79 µM and 2.45 µM and 2.49 µM and 2.07 µM | > 100 |  |
| CNc1nc2c(s1)C(c1ccc(F)cc1Cl)CC(=O)N2 (stereo unspecified) | > 50.1 | > 100 µM |  | 22.8 µM and 15.7 µM |  |  |  |
| CNc1nc2c(s1)C(c1cccc(Cl)c1Cl)CC(=O)N2 (stereo unspecified) | > 50.1 | 37.8 µM and > 100 µM |  | 10.4 µM and 11.2 µM |  |  |  |
| CNc1nc2c(s1)C(c1ccc(Cl)cc1Cl)CC(=O)N2 (stereo unspecified) | > 50.1 | > 100 µM |  | 10.3 µM and 10.6 µM | 4.56 µM and 3.65 µM |  |  |
| CNc1nc2c(s1)C(c1ccccc1F)CC(=O)N2 (stereo unspecified) | > 50.1 | > 100 µM and 93.8 µM |  | 5.69 µM and 4.89 µM | 2.32 µM and 2.22 µM and 2.27 µM and 2.53 µM | > 100 |  |
| COc1cccc(C2CC(=O)Nc3nc(N4CCOCC4)sc32)c1OC (stereo unspecified) | > 50.1 | 10.6 µM and 8.05 µM | 85.8 µM and 91 µM | 5.22 µM and 4.5 µM | 1.2 µM and 0.876 µM |  |  |
| CNc1nc2c(s1)C(c1cccc(F)c1F)CC(=O)N2 (stereo unspecified) | > 50.1 | 93.5 µM and 33.1 µM |  | 22.5 µM and 14.6 µM |  | > 100 |  |

| SMILES | IC50 [1] [µM] | IC50 [2] | IC50 [3] | IC50 [4] | IC50 [5] | IC50 [6] [µM] | IC50 [7] |
| --- | --- | --- | --- | --- | --- | --- | --- |
| CNc1nc2c(s1)C(c1c(Cl)cccc1Cl)CC(=O)N2 (stereo unspecified) | > 50.1 | 89.4 µM and 43.2 µM |  | 21.3 µM and 23 µM | 20.8 µM and 17.5 µM |  |  |
| O=C(Cc1cccc(Cl)c1)N[C@@H]1CCNC[C@H]1O |  |  |  |  |  |  | > 100 µM and 21.3 µM |
| CC(C)c1cc(C(F)(F)F)n2nc(CCC(=O)O)nc2n1 |  |  |  |  |  |  | > 100 µM |
| O=S(=O)(c1ccccc1)N1CCCCC1c1cc[nH]n1 (stereo unspecified) |  |  |  |  |  |  | > 100 µM |
| Cc1nc(C(=O)N2CCC(Cc3cnc4[nH]ccc4c3)C2)co1 (stereo unspecified) |  |  |  |  |  |  | > 100 µM |
| NCc1cn(-c2ccccc2C(=O)NCc2cccc(Cl)c2)cn1 |  |  |  |  |  |  | > 100 µM |
| Cc1cc(-c2cnn(CCNC(=O)C3CC3)c2C2CC2)on1 |  |  |  |  |  |  | > 100 µM |
| O=C1CN(Cc2ccc(-c3ccccc3C(=O)O)cc2)CCN1 |  |  |  |  |  |  | > 100 µM |
| Cn1cc(C(=O)N2CCC(Cc3nccs3)CC2)cn1 |  |  |  |  |  |  | > 100 µM |
| Nc1cc(CCC2CN(Cc3ccc(C(=O)O)cc3)CCO2)ccn1 (stereo unspecified) |  |  |  |  |  |  | > 100 µM |
| COc1ccccc1CC(=O)N1CC[C@@]2(CCCO2)[C@@H](OC)C1 |  |  |  |  |  |  | > 100 µM |
| Cc1nccn1-c1cccc(C2CCCN2S(=O)(=O)c2cn(C)cn2)n1 (stereo unspecified) |  |  |  |  |  |  | > 100 µM |
| COCCN1CCN(CCS(=O)(=O)C(F)(F)F)CC1C (stereo unspecified) |  |  |  |  |  |  | 32.8 µM and 33 µM |
| CCNC(=O)Nc1ccc2c(ccn2CC(=O)N(CC)CC)c1 |  | > 100 µM |  |  |  |  |  |
| CCOc1ccccc1C(=O)N1CCCC1c1ncc2c(n1)CCNC2 (stereo unspecified) |  |  |  |  |  |  | > 100 µM |
| COc1ncc(C2(O)CCN(Cc3c(F)cccc3F)CC2)c(OC)n1 |  |  |  |  |  |  | > 100 µM |
| CCOC(=O)c1sc2ccsc2c1CN |  |  |  |  |  |  | > 100 µM |
